Experimental data from patent US20170217976A1, “6-(AMINO ACID)-MORPHINAN DERIVATIVES IN COMBINATION WITH PERMEATION […] FOR USE AS AN ORALLY, […], TRA[…] NASALLY AD[…]” (C[…], priority 2014, published 2017).
Like-named read-outs stand apart in the source and are kept apart here.

Assays:
KOR = target: T1, KOR (Cavia porcellus, UniProt P41144); experiment: Opioid receptor binding, KOR, guinea pig brain membranes
T1 construct: from tissue

MOR = target: T2, MOR (Rattus norvegicus, UniProt P33535); experiment: Opioid receptor binding, MOR, rat brain membranes
T2 construct: from tissue

DOR = target: T3, DOR (Rattus norvegicus, UniProt P33533); experiment: Opioid receptor binding, DOR, rat brain membranes
T3 construct: from tissue

[1] = Binding Ki (nM) KOR, in vitro binding assay, guinea pig brain membranes
[2] = Binding Ki (nM) MOR, in vitro binding assay, rat brain membranes
[3] = Binding Ki (nM) DOR, in vitro binding assay, rat brain membranes
[4] = Binding Ki KOR, Table 1-4, guinea pig brain membranes
[5] = Binding Ki DOR, Table 1-4, rat brain membranes
[6] = Binding Ki MOR, Table 1-4, rat brain membranes
[7] = Binding Ki KOR, Table 1-6, guinea pig brain membranes
[8] = Binding Ki KOR, Table 2-6, guinea pig brain membranes
[9] = Binding Ki MOR, Table 1-6, rat brain membranes
[10] = Binding Ki MOR, Table 2-6, rat brain membranes
[11] = Binding Ki DOR, Table 1-6, rat brain membranes
[12] = Binding Ki DOR, Table 2-6, rat brain membranes
[13] = in vitro binding assay, guinea pig brain membranes, read-out: Binding Ki (nM) KOR
[14] = in vitro binding assay, rat brain membranes, read-out: Binding Ki (nM) MOR
[15] = in vitro binding assay, rat brain membranes, read-out: Binding Ki (nM) DOR

T2 sequence (P33535 whole entry): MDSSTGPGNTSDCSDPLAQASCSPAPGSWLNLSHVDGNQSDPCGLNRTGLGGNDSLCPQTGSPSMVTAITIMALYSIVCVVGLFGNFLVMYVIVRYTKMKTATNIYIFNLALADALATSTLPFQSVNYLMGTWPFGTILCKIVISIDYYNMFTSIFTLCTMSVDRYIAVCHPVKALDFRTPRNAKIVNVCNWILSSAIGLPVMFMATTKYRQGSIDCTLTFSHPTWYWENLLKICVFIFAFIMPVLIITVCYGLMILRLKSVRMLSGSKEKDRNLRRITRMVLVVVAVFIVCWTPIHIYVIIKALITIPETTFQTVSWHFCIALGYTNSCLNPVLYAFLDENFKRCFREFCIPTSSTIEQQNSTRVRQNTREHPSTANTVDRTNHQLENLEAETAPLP
T1 sequence (P41144 whole entry): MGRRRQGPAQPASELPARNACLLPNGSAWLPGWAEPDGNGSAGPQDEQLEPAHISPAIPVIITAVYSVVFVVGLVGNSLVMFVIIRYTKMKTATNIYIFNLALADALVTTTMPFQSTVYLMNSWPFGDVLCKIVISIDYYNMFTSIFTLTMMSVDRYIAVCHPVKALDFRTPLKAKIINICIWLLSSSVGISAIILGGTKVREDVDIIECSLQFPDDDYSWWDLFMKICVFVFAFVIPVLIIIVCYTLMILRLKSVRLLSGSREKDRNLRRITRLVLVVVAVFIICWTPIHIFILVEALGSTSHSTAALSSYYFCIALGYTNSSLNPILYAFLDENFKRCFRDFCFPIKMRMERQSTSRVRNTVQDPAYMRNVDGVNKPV
T3 sequence (P33533 whole entry): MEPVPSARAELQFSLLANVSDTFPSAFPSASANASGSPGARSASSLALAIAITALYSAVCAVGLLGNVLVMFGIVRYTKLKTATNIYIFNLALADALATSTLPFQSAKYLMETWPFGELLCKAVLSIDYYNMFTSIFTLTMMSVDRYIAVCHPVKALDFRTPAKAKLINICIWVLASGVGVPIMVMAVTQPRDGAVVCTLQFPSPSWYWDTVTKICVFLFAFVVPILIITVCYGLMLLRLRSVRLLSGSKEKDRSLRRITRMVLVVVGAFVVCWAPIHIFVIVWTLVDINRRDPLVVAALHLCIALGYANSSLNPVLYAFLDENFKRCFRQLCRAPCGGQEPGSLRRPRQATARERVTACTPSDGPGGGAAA

Compound `CCC(C)C(NC1CCC2(OC)C3Cc4ccc(O)c5c4C2(CCN3C)C1O5)C(=O)OC(C)(C)C` (single isomer, unassigned) [42-t-Bu ester] has a Ki (KOR; [1]) of 29.2 nM, a Ki (MOR; [2]) of 1.04 nM and a Ki (DOR; [3]) of 1 nM.
Compound `CCC(C)C(NC1CCC2(OC)C3Cc4ccc(O)c5c4C2(CCN3C)C1O5)C(=O)OC(C)(C)C` (single isomer, unassigned) [43-t-Bu ester] has a Ki (KOR; [1]) of 208 nM, a Ki (MOR; [2]) of 2.87 nM and a Ki (DOR; [3]) of 2.12 nM.
`COC12CCC(NC(C)C(=O)O)C3Oc4c(O)ccc5c4C31CCN(C)C2C5` (single isomer, unassigned) [Compound 1] was tested, and the Ki (KOR; [1]) was 142 nM, the Ki (KOR; [4]) was 142 nM and the Ki (DOR; [3]) was 26.9 nM. It also gave a Ki (DOR; [5]) of 26.9 nM.
With `COC12CCC(NC(C)C(=O)O)C3Oc4c(O)ccc5c4C31CCN(C)C2C5` (single isomer, unassigned) [Compound 2] the Ki (KOR; [1]) was 63.7 nM, the Ki (KOR; [4]) was 63.7 nM and the Ki (DOR; [3]) was 7.71 nM. The Ki (DOR; [5]) was 7.71 nM.
`COC12CCC(NCCC(=O)O)C3Oc4c(O)ccc5c4C31CCN(C)C2C5` (single isomer, unassigned) [Compound 21] was tested, and the Ki (KOR; [1]) was 182 nM, the Ki (KOR; [4]) was 182 nM and the Ki (MOR; [2]) was 1.3 nM. The Ki (MOR; [6]) was 1.3 nM, the Ki (DOR; [3]) was 60 nM and the Ki (DOR; [5]) was 60 nM.
In the case of `COC12CCC(NCCC(=O)O)C3Oc4c(O)ccc5c4C31CCN(C)C2C5` (single isomer, unassigned) [Compound 22], the Ki (KOR; [1]) is reported as 71.4 nM, the Ki (KOR; [4]) is reported as 71.4 nM and the Ki (MOR; [2]) is reported as 1.04 nM. It also gave a Ki (MOR; [6]) of 1.04 nM, a Ki (DOR; [3]) of 13.9 nM and a Ki (DOR; [5]) of 13.9 nM.
For `COC12CCC(NC(C(=O)O)C(C)C)C3Oc4c(O)ccc5c4C31CCN(C)C2C5` (single isomer, unassigned) [Compound 28], the Ki (KOR; [1]) was 325 nM, the Ki (KOR; [4]) was 325 nM and the Ki (MOR; [2]) was 3.16 nM. It also gave a Ki (MOR; [6]) of 3.16 nM, a Ki (DOR; [3]) of 3.91 nM and a Ki (DOR; [5]) of 3.91 nM.
`COC12CCC(NC(C(=O)O)C(C)C)C3Oc4c(O)ccc5c4C31CCN(C)C2C5` (single isomer, unassigned) [Compound 29] gave a Ki (KOR; [1]) of 305 nM, a Ki (KOR; [4]) of 305 nM and a Ki (MOR; [2]) of 3.04 nM. The Ki (MOR; [6]) was 3.04 nM, the Ki (DOR; [3]) was 3.52 nM and the Ki (DOR; [5]) was 3.52 nM.
Compound `COC12CCC(NC(C(=O)O)C(C)C)C3Oc4c(O)ccc5c4C31CCN(C)C2C5` (single isomer, unassigned) [Compound 30] has a Ki (KOR; [1]) of 202 nM, a Ki (KOR; [4]) of 202 nM and a Ki (MOR; [2]) of 1.7 nM. The Ki (MOR; [6]) was 1.7 nM, the Ki (DOR; [3]) was 1.93 nM and the Ki (DOR; [5]) was 1.93 nM.
`COC12CCC(NC(C(=O)O)C(C)C)C3Oc4c(O)ccc5c4C31CCN(C)C2C5` (single isomer, unassigned) [Compound 31] was tested, and the Ki (KOR; [1]) was 159 nM, the Ki (KOR; [4]) was 159 nM and the Ki (MOR; [2]) was 1.02 nM. It also gave a Ki (MOR; [6]) of 1.02 nM, a Ki (DOR; [3]) of 1.68 nM and a Ki (DOR; [5]) of 1.68 nM.
`COC12CCC(NC(C)C(=O)O)C3Oc4c(O)ccc5c4C31CCN(C)C2C5` (single isomer, unassigned) [Compound 53] was tested, and the Ki (KOR; [4]) was 71.5 nM and the Ki (DOR; [5]) was 10.4 nM.
`COC12CCC(NC(C)C(=O)O)C3Oc4c(O)ccc5c4C31CCN(C)C2C5` (single isomer, unassigned) [Compound 54] was tested, and the Ki (KOR; [4]) was 142 nM and the Ki (DOR; [5]) was 11.3 nM.
Work on `COC12CCC(NC(C(=O)O)C(C)C)C3Oc4c(O)ccc5c4C31CCN(CC1CC1)C2C5` (single isomer, unassigned) [Compound 68] yielded a Ki (KOR; [7]) of 3.34 nM, a Ki (KOR; [8]) of 3.34 nM and a Ki (MOR; [9]) of 0.44 nM. The Ki (MOR; [10]) was 0.44 nM, the Ki (DOR; [11]) was 0.53 nM and the Ki (DOR; [12]) was 0.53 nM.
With `COC12CCC(NC(C(=O)O)C(C)C)C3Oc4c(O)ccc5c4C31CCN(CC1CC1)C2C5` (single isomer, unassigned) [Compound 69] the Ki (KOR; [7]) was 3 nM, the Ki (KOR; [8]) was 3 nM and the Ki (MOR; [9]) was 0.66 nM. The Ki (MOR; [10]) was 0.66 nM, the Ki (DOR; [11]) was 1.35 nM and the Ki (DOR; [12]) was 1.35 nM.
`COC12CCC(NC(C(=O)O)C(C)C)C3Oc4c(O)ccc5c4C31CCN(CC1CC1)C2C5` (single isomer, unassigned) [Compound 70] was tested, and the Ki (KOR; [7]) was 3.54 nM, the Ki (KOR; [8]) was 3.54 nM and the Ki (MOR; [9]) was 0.62 nM. The Ki (MOR; [10]) was 0.62 nM, the Ki (DOR; [11]) was 0.71 nM and the Ki (DOR; [12]) was 0.71 nM.
In the case of `COC12CCC(NC(C(=O)O)C(C)C)C3Oc4c(O)ccc5c4C31CCN(CC1CC1)C2C5` (single isomer, unassigned) [Compound 71], the Ki (KOR; [7]) is reported as 23 nM, the Ki (KOR; [8]) is reported as 23 nM and the Ki (MOR; [9]) is reported as 1.52 nM. The Ki (MOR; [10]) was 1.52 nM, the Ki (DOR; [11]) was 0.35 nM and the Ki (DOR; [12]) was 0.35 nM.
For `CO[C@@]12CC[C@H](N[C@@H](C)C(=O)OC(C)(C)C)[C@@H]3Oc4c(O)ccc5c4[C@@]31CCN(C)[C@@H]2C5` [1-t-Bu ester], the Ki (KOR; [1]) was 11.3 nM, the Ki (MOR; [2]) was 0.29 nM and the Ki (DOR; [3]) was 0.41 nM.
In the case of `CO[C@@]12CC[C@@H](N[C@@H](C)C(=O)OC(C)(C)C)[C@@H]3Oc4c(O)ccc5c4[C@@]31CCN(C)[C@@H]2C5` [2-t-Bu ester], the Ki (KOR; [1]) is reported as 93.6 nM, the Ki (MOR; [2]) is reported as 1.13 nM and the Ki (DOR; [3]) is reported as 1.36 nM.
For `CO[C@@]12CC[C@H](N[C@@H](Cc3ccccc3)C(=O)OC(C)(C)C)[C@@H]3Oc4c(O)ccc5c4[C@@]31CCN(C)[C@@H]2C5` [3-t-Bu ester], the Ki (KOR; [13]) was 32.5 nM, the Ki (MOR; [14]) was 0.5 nM and the Ki (DOR; [15]) was 0.93 nM.
`CO[C@@]12CC[C@@H](N[C@@H](Cc3ccccc3)C(=O)OC(C)(C)C)[C@@H]3Oc4c(O)ccc5c4[C@@]31CCN(C)[C@@H]2C5` [4-t-Bu ester] showed a Ki (MOR; [2]) of 2.56 nM and a Ki (DOR; [15]) of 2.66 nM.
For `CCO[C@@]12CC[C@H](NCC(=O)OC(C)(C)C)[C@@H]3Oc4c(O)ccc5c4[C@@]31CCN(C)[C@@H]2C5` [5-t-Bu ester], the Ki (KOR; [1]) was 15 nM, the Ki (MOR; [2]) was 0.2 nM and the Ki (DOR; [3]) was 0.31 nM.
Compound `CCO[C@@]12CC[C@@H](NCC(=O)OC(C)(C)C)[C@@H]3Oc4c(O)ccc5c4[C@@]31CCN(C)[C@@H]2C5` [6-t-Bu ester] has a Ki (KOR; [13]) of 34.1 nM, a Ki (MOR; [14]) of 0.81 nM and a Ki (DOR; [15]) of 0.57 nM.
In the case of `CCOC(=O)CNC1CCC2(OCCCc3ccccc3)C3Cc4ccc(O)c5c4C2(CCN3C)C1O5` (stereo not drawn) [7-Et ester], the Ki (KOR; [13]) is reported as 0.44 nM, the Ki (MOR; [14]) is reported as 0.43 nM and the Ki (DOR; [15]) is reported as 0.25 nM.
`CN1CCC23c4c5ccc(O)c4OC2C(NCC(=O)OC(C)(C)C)CCC3(OCCCc2ccccc2)C1C5` (stereo not drawn) [7-t-Bu ester] showed a Ki (KOR; [13]) of 1.26 nM, a Ki (MOR; [14]) of 1.4 nM and a Ki (DOR; [15]) of 1.01 nM.
In the case of `CCOC(=O)CNC1CCC2(OCCCc3ccccc3)C3Cc4ccc(O)c5c4C2(CCN3C)C1O5` (stereo not drawn) [8-Et ester], the Ki (KOR; [13]) is reported as 0.41 nM, the Ki (MOR; [14]) is reported as 0.37 nM and the Ki (DOR; [15]) is reported as 0.21 nM.
`CN1CCC23c4c5ccc(O)c4OC2C(NCC(=O)OC(C)(C)C)CCC3(OCCCc2ccccc2)C1C5` (stereo not drawn) [8-t-Bu ester] gave a Ki (KOR; [13]) of 2.02 nM, a Ki (MOR; [14]) of 1.03 nM and a Ki (DOR; [15]) of 0.92 nM.
In the case of `CO[C@@]12CC[C@H](N[C@@H](Cc3ccc(O)cc3)C(=O)OC(C)(C)C)[C@@H]3Oc4c(O)ccc5c4[C@@]31CCN(C)[C@@H]2C5` [9-t-Bu ester], the Ki (KOR; [13]) is reported as 12.3 nM, the Ki (MOR; [2]) is reported as 0.59 nM and the Ki (DOR; [15]) is reported as 0.42 nM.
`CO[C@@]12CC[C@@H](N[C@@H](Cc3ccc(O)cc3)C(=O)OC(C)(C)C)[C@@H]3Oc4c(O)ccc5c4[C@@]31CCN(C)[C@@H]2C5` [10-t-Bu ester] was tested, and the Ki (KOR; [13]) was 184 nM, the Ki (MOR; [14]) was 1.53 nM and the Ki (DOR; [15]) was 1.88 nM.
`CO[C@@]12CC[C@H](NCCCC(=O)OC(C)(C)C)[C@@H]3Oc4c(O)ccc5c4[C@@]31CCN(C)[C@@H]2C5` [15-t-Bu ester] was tested, and the Ki (KOR; [1]) was 8.82 nM, the Ki (MOR; [2]) was 0.22 nM and the Ki (DOR; [3]) was 7.99 nM.
With `CO[C@@]12CC[C@@H](N[C@@H](C)C(=O)OC(C)(C)C)[C@@H]3Oc4c(O)ccc5c4[C@@]31CCN(CC1CC1)[C@@H]2C5` [72-tBu ester] the Ki (KOR; [8]) was 9.68 nM and the Ki (DOR; [12]) was 0.32 nM.
`CO[C@@]12CC[C@H](NCC(=O)OC(C)(C)C)[C@@H]3Oc4c(O)ccc5c4[C@@]31CCN(C)[C@@H]2C5` [HS730-t-Bu ester] gave a Ki (KOR; [1]) of 12.1 nM and a Ki (DOR; [3]) of 0.54 nM.
